Laboratory results as given in patent US20200032213A1, “CONDITIONALLY IMMORTALIZED CELLS AND METHODS FOR THEIR PREPARATION” (Academisch Ziekenhuis Leiden h.o.d.n. LUMC, priority 2017, published 2020).

Legend:
[1] = test system: iaCMCs at day 9 of differentiation; assay: Optical voltage mapping of tertiapin-treated iaCMC-d9 monolayers, 1-Hz pacing; type: cell-based, rat; conditions: tertiapin (100 nM), iaCMCs cultured 9 days without Dox
Protocol: (§1) For studying AP propagation in confluent monolayer cultures, cells were seeded at a density of 8×10^5 cells/well in 24-well cell culture plates onto bovine fibronectin-coated round glass coverslips (15 mm diameter) and subjected to optical voltage mapping using di-4-ANEPPS (Thermo Fisher Scientific) as fluorescent voltage indicator as described previously (Bingen et al., 2014). The measurements were carried out at 37° C. on 9-day-old naCMC and nvCMC cultures and on iaCMCs that had been maintained for 0, 3, 6, 9 and 12 days in Dox-free medium. Optical signals were captured using a MiCAM ULTIMA-L imaging system (SciMedia, Costa Mesa, Calif.). Optical traces were analyzed using Brain Vision Analyzer 1208 software (Brainvision, Tokyo, Japan). To minimize noise artifacts, calculations were based on the average of the signals at a selected pixel and its eight nearest neighbors. CV and APD at different percentages of repolarization were determined using cardiomyocyte cultures showing uniform AP propagation and 1:1 capture after 1-Hz local electrical stimulation with an epoxy-coated bipolar platinum electrode delivering square 10-ms, 8-V suprathreshold electrical impulses via a STG 2004 stimulus generator and MC Stimulus II software (both from Multi Channel Systems). Burst pacing with a cycle length of 20 to 100 ms was used to induce reentry. […]

confluent naCMC cultures = conditions: naCMCs; Bingen et al., 2013; cited from earlier work
[2] = test system: confluent monolayers of iaCMCs; assay: In vitro AF model: induction of reentry by burst pacing in confluent iaCMC monolayers; type: cell-based, rat; conditions: 100 nM tertiapin, iaCMCs at day 6, 9 or 12 of differentiation
Protocol: as §1

[3] = test system: iaCMCs at day 6 of differentiation; assay: Optical voltage mapping of iaCMC-d6 cultures exposed to astemizole, 1-Hz pacing; type: cell-based, rat
Protocol: For studying AP propagation in confluent monolayer cultures, cells were seeded at a density of 8×10^5 cells/well in 24-well cell culture plates onto bovine fibronectin-coated round glass coverslips (15 mm diameter) and subjected to optical voltage mapping using di-4-ANEPPS (Thermo Fisher Scientific) as fluorescent voltage indicator as described previously (Bingen et al., 2014). The measurements were carried out at 37° C. on 9-day-old naCMC and nvCMC cultures and on iaCMCs that had been maintained for 0, 3, 6, 9 and 12 days in Dox-free medium. Optical signals were captured using a MiCAM ULTIMA-L imaging system (SciMedia, Costa Mesa, Calif.). Optical traces were analyzed using Brain Vision Analyzer 1208 software (Brainvision, Tokyo, Japan). To minimize noise artifacts, calculations were based on the average of the signals at a selected pixel and its eight nearest neighbors. CV and APD at different percentages of repolarization were determined using cardiomyocyte cultures showing uniform AP propagation and 1:1 capture after 1-Hz local electrical stimulation with an epoxy-coated bipolar platinum electrode delivering square 10-ms, 8-V suprathreshold electrical impulses via a STG 2004 stimulus generator and MC Stimulus II software (both from Multi Channel Systems). Burst pacing with a cycle length of 20 to 100 ms was used to induce reentry. […] To facilitate comparison of the APD, the amplitude of the optical signal traces was normalized for all samples within a given experiment.

[4] = test system: adipogenically differentiated murine clone 6 and 7 tBPAs; assay: Adrenergic stimulation of adipogenically differentiated tBPAs (glycerol production, Ucp1 transcripts); type: cell-based
iaCMCs = assay: Dox-dependent proliferation of iaCMCs (Ki-67 immunostaining, cell counting); type: cell-based, rat; conditions: in the presence of Dox (100 ng/ml)
Protocol: Immunostaining of cultured cells was performed as previously described (Yu et al., 2016) using the following primary antibodies at a dilution of 1:200 in PBS containing 0.1% normal donkey serum (NDS; Sigma-Aldrich): mouse anti-LT (Santa Cruz Biotechnology, catalogue number: sc-147), rabbit anti-Ki-67 (Abcam, catalogue number: ab15580), mouse anti-α-actinin (Sigma-Aldrich, catalogue number: A7811), rabbit anti-MLC2a (Kubalak et al., 1994), rabbit anti-Cx43 (Sigma-Aldrich, catalogue number: C6219) and rabbit anti-ERG1/Kv11.1 (Millipore, catalogue number: AB5930). Bound antigens were detected using Alexa 488-conjugated donkey anti-rabbit IgG (H+L) (Thermo Fisher Scientific, catalogue number: A21206) and Alexa 568-coupled donkey anti-mouse IgG (H+L) (Thermo Fisher Scientific, catalogue number: A10037). These secondary antibodies were diluted 1:400 in PBS. Hoechst 33342 ([…]; Thermo Fisher Scientific) was used to counterstain nuclei. Stained cells were visualized using a digital color camera-equipped fluorescence microscope (Nikon Eclipse 80i; Nikon Instruments Europe, Amstelveen, The Netherlands). To assess their proliferation rate, […] were cultured at low density in medium with or without 100 ng/ml Dox. […]

tertiapin (ALCNCNRIIIPHMCWKKCGKK)
effect on APD [1]: strong increase | termination of reentrant circuits (rotors) by prolonging APD (confluent naCMC cultures): could be terminated | inducibility of reentry by burst pacing [2]: no longer possible to induce reentry

COc1ccc(CCN2CCC(Nc3nc4ccccc4n3Cc3ccc(F)cc3)CC2)cc1 [astemizole]
conduction velocity (CV) ([3]; 0.1 µM): 14.8 ± 2.8 cm/s | APD at 40% repolarization (APD40) ([3]; 100 nM astemizole, 30 minutes, iaCMC-d6, 1-Hz pacing, N=6, vehicle 21.5±1.0): 30.2 ± 2.1 ms | APD at 90% repolarization (APD90) ([3]; 100 nM astemizole, 30 minutes, iaCMC-d6, 1-Hz pacing, N=6, vehicle 88.7±5.4): 110.9 ± 4.2 ms

C[C@H](Cc1ccc2c(c1)OC(C(=O)[O-])(C(=O)[O-])O2)NC[C@H](O)c1cccc(Cl)c1.[Na+].[Na+] [CL316243]
Ucp1 transcript levels [4]: increased | glycerol production [4]: increased

NC[C@H](O)c1ccc(O)c(O)c1 [noradrenaline]
Ucp1 transcript levels [4]: increased | glycerol production [4]: increased

C[C@H]1c2cccc(O)c2C(=O)C2=C(O)[C@]3(O)C(=O)C(C(N)=O)=C(O)[C@@H](N(C)C)[C@@H]3[C@@H](O)[C@@H]21 [Dox, doxycycline]
average doubling time (iaCMCs): 38 h | iaCMCs positive for the proliferation marker Ki-67 (iaCMCs): 72.2±8.1%
